The text below walks through data of patent US11999750B2, “Crystalline forms of (S)-5-benzyl-N-(5-methyl-4-oxo-2,3,4,5-tetrahydropyrido [3,2-B][1,4]oxazepin-3-yl)-4H-1,2,4-triazole-3-carboxamide” (Denali Therapeutics Inc., priority 2022, dated 2024).

Values after ≈ are worked out from the molar mass of the structure shown. “Also recorded” adds a separate entry of the source.

Common to all, as to format: physicochemical
Data set [1] is described as follows: Slurry competition experiments (inter-conversion study of crystal forms). The conditions noted are these: for Thermodynamic stability relationship / conversion in slurry: slurry in H2O and n-Heptane for 2 days, RT and 70° C. How it is done: To understand the thermodynamic stability relationship between Form A, B and C, slurry competition experiments in H2O and n-Heptane were performed at RT and 70° C. Prior to the study, the starting material (Form A of Compound (I)) was used to saturate the corresponding solvent at RT and 70° C. before filtered to obtain a near-saturated solution. Equal amounts (˜ 5 mg) of Form A, Form B and Form C were weighed and then added to 0.3 mL of the prepared solution to form a new suspension, which was stirred magnetically (˜1000 rpm) at RT/70° C. for about 2 days.

Data set [2] is described as follows: Kinetic solubility in bio-relevant media (SGF, FaSSIF, FeSSIF) and H2O at 37° C. The settings on record: for solubility at 24 h / solubility at 4 h: 37 °C, thermodynamic from solid; for Form change after kinetic solubility test: bio-relevant media or H2O, XRPD of residual solids. Here is the method:
Kinetic solubility tests of Form A, Form B, and Form C was performed in bio-relevant media (SGF, FaSSIF and FeSSIF) and H2O at 37° C. Solids were suspended into FaSSIF, FeSSIF, SGF and H2O with target conc. of ˜10 mg/mL. The suspensions were agitated on a rolling incubator at 25 rpm (in the incubator set at 37° C.) for 1, 4 and 24 hrs. At each time point, 1 mL of the suspension was pipetted out for centrifugation at 25000 rpm (3 min) and filtration through 0.45 μm membrane to obtain supernatant for HPLC solubility and pH tests. The residual solids were analyzed by XRPD. […] The solubility of Form A/B/C was summarized from Table 22-24.

Data set [3] is described as follows: Dynamic Vapor Sorption (DVS). The settings on record: for Weight gain by DVS: 0 percent to 95 percent relative humidity; for Weight gain by DVS / Hygroscopicity: about 25 degrees centigrade; for Form change after DVS test: XRPD after DVS, 25° C., 0 to 95% RH; for Hygroscopicity: no hygroscopicity = weight gain less than 0.2 weight percent, 0 to 95 percent RH. How it is done:
DVS was measured via a SMS (Surface Measurement Systems) DVS Intrinsic. The relative humidity at 25° C. were calibrated against deliquescence point of LiCl, Mg(NO3)2 and KCl. To investigate the solid form stability as a function of humidity, DVS isotherm plots of Form A, Form B, and Form C were collected at 25° C. between 0 and 95% RH. […] As determined by Dynamic Vapor Sorption (DVS) in the range of from 0 percent to 95 percent relative humidity at a temperature of about 25 degrees centigrade (plus or minus 0.2 degrees C.), the crystalline Form A, Form B, and Form C of Compound (I) show a weight gain of about 0.09 weight percent, 0.07 weight percent, and 5.7 weight percent, respectively.

Data set [4] can be described thus: Physical and chemical stability on storage (XRPD and HPLC). The settings on record: 40° C./75% RH; 25° C./60% RH; 60° C.; two and four weeks. How it is done: To evaluate the physical and chemical stability, Form A, Form B, and Form C were stored in 3 conditions (40° C./75% RH; 25° C./60% RH; and 60° C.) for two and four weeks. All samples were characterized using XRPD and HPLC.

The nature of data set [5]: Equilibrium solubility in pH buffers, residual solid by XRPD. The conditions noted are these: 8 pH buffers (pH 1.0-8.0), RT, 24 hrs, XRPD of residual solids. How it is done:
Equilibrium solubility of Form B was measured in 8 pH buffers (i.e., pH 1.0, 2.0, 3.0, 4.0, 5.0, 6.0, 7.0, 8.0) at RT for 24 hrs. Solids were suspended into pH buffers with target conc. of ˜10 mg/mL. The suspensions were slurried at RT for 24 hrs (1000 rpm), prior to centrifugation at 20000 rpm (2 min), and filtration through 0.45 μm membrane to obtain supernatant for HPLC solubility and pH tests. The residual solids were analyzed by XRPD.

Data set [6] can be described thus: Form identification by heating to 100° C. and cooling to RT (XRPD comparison). Here is the method: A weight loss of 5.7% up to 100° C. was observed on the TGA curve for Form C prepared by evaporation. […] (peak temperature) and 124.9° C. (onset temperature). […] (peak temperature) and 127.0° C. (onset temperature) were observed on the DSC curve. For form identification, variable-temperature XRPD (VT-XRPD) was performed for Form C. […] Considering the large TGA weight loss and no XRPD change after removal of water/solvent (VT-XRPD). Single crystal structure determination confirmed that Form C is a channel hydrate (without form change after dehydration).
A two-stage weight loss of 3.8% up to 85° C. and 11.5% from 85° C. to 120° C. was observed on the TGA curve. […] For form identification, Form D was heated to 100° C. and cooled to RT. […] According to the results, Form D was characterized to be an IPA solvate.

Data set [7] can be described thus: Exposure to ambient condition (XRPD comparison). An excerpt:
Therefore, TGA and DSC characterizations were not performed for Form E. According to the single crystal structure determination results, Form E is a DCM solvate.

For the compound `CN1C(=O)[C@@H](NC(=O)c2nnc(Cc3ccccc3)[nH]2)COc2cccnc21` [Form A + B + C], in data set [1] (H2O or n-Heptane, RT or 70° C., about 2 days (experiments 1-4, merged cell)), the “Crystal form after slurry competition” value was “Form B”.

As to `CN1C(=O)[C@@H](NC(=O)c2nnc(Cc3ccccc3)[nH]2)COc2cccnc21` [Form A, (S)-5-benzyl-N-(5-methyl-4-oxo-2,3,4,5-tetrahydropyrido [3,2-b][1,4]oxazepin-3-yl)-4H-1,2,4-triazole-3-carboxamide], the solubility – broadly, how much of the substance goes into solution per volume – at 24 h in data set [2] (FaSSIF, pH 6.5, fassif, FaSSIF (pH 6.5), 24 hr) was 100 µg/mL (≈ 264 µM); in data set [2] (FeSSIF, pH 5, fessif, FeSSIF (pH 5.0), 24 hr) it was 120 µg/mL (≈ 317 µM); in data set [2] (SGF, pH 1.8, simulated gastric fluid, SGF (pH 1.8), 24 hr), 100 µg/mL (≈ 264 µM); in data set [2] (water, pH 6.5, water, H2O (pH 6.5), 24 hr) it was 90 µg/mL (≈ 238 µM). Further, the Solubility (as a rule, how much of the substance goes into solution per volume) in data set [2] (FeSSIF (pH 5.0), 1 hr) stood at 120 µg/mL (≈ 317 µM); in data set [2] (H2O (pH 6.5), 1 hr), 80 µg/mL (≈ 211 µM). Besides, the solubility at 4 h was 120 µg/mL (≈ 317 µM) in data set [2] (FeSSIF, pH 5, fessif, FeSSIF (pH 5.0), 4 hr); 100 µg/mL (≈ 264 µM) in data set [2] (SGF, pH 1.8, simulated gastric fluid, SGF (pH 1.8), 4 hr); 90 µg/mL (≈ 238 µM) in data set [2] (water, pH 6.5, water, H2O (pH 6.5), 4 hr). Also, in data set [2], the “Form change after kinetic solubility test” value is “No form change”. Further, the “Weight gain by DVS” value in data set [3] was “about 0.09 weight percent”. In data set [3], the “Form change after DVS test” value was “no form change”. Moreover, the Hygroscopicity entry in data set [3] was “no hygroscopicity; also recorded: less hygroscopic”. Also, the “Form change on storage (XRPD)” value in data set [4] was “no observable form change”. The “HPLC purity change on storage” value in data set [4] is on record as “no noticeable HPLC purity change”. Besides, in data set [1], the “Thermodynamic stability relationship / conversion in slurry” value is listed as “converted to Form B”.

As for `CN1C(=O)[C@@H](NC(=O)c2nnc(Cc3ccccc3)[nH]2)COc2cccnc21` [Form B, (S)-5-benzyl-N-(5-methyl-4-oxo-2,3,4,5-tetrahydropyrido [3,2-b][1,4]oxazepin-3-yl)-4H-1,2,4-triazole-3-carboxamide], the Solubility in data set [2] (FaSSIF (pH 6.5), 1 hr) worked out at 80 µg/mL (≈ 211 µM); in data set [2] (FaSSIF (pH 6.5), 4 hr), 90 µg/mL (≈ 238 µM); in data set [2] (FaSSIF (pH 6.5), 24 hr) it was 90 µg/mL (≈ 238 µM); in data set [2] (FeSSIF (pH 5.0), 1 hr), 100 µg/mL (≈ 264 µM); in data set [2] (FeSSIF (pH 5.0), 4 hr), 110 µg/mL (≈ 291 µM); in data set [2] (FeSSIF (pH 5.0), 24 hr), 100 µg/mL (≈ 264 µM). The Solubility in data set [2] (H2O (pH 6.5), 1 hr) was determined as 70 µg/mL (≈ 185 µM); in data set [2] (H2O (pH 6.5), 4 hr), 70 µg/mL (≈ 185 µM); in data set [2] (H2O (pH 6.5), 24 hr) it was 70 µg/mL (≈ 185 µM); in data set [2] (SGF (pH 1.8), 1 hr), 80 µg/mL (≈ 211 µM); in data set [2] (SGF (pH 1.8), 4 hr) it was 80 µg/mL (≈ 211 µM); in data set [2] (SGF (pH 1.8), 24 hr) it was 80 µg/mL (≈ 211 µM). For the same compound, in data set [2], the “Form change after kinetic solubility test” value is listed as “No form change”. In data set [3], the “Weight gain by DVS” value is listed as around 0.07 weight percent. The “Form change after DVS test” value in data set [3] is on record as “no form change”. Besides, the Hygroscopicity result in data set [3] was “less hygroscopic; also recorded: no hygroscopicity; also recorded: not hygroscopic”. For the same compound, in data set [4], the “Form change on storage (XRPD)” value is on record as “no observable form change”. In data set [4], the “HPLC purity change on storage” value was “no noticeable HPLC purity change”. The “Thermodynamic stability relationship / conversion in slurry” value in data set [1] is given as “thermodynamically more stable”. In addition, in data set [5], the “Form change after equilibrium solubility evaluation” value is listed as “No form change”.

For the compound `CN1C(=O)[C@@H](NC(=O)c2nnc(Cc3ccccc3)[nH]2)COc2cccnc21` [Form C, (S)-5-benzyl-N-(5-methyl-4-oxo-2,3,4,5-tetrahydropyrido [3,2-b][1,4]oxazepin-3-yl)-4H-1,2,4-triazole-3-carboxamide], the Solubility is 860 µg/mL (≈ 2270 µM) in data set [2] (FaSSIF (pH 6.5), 1 hr); 730 µg/mL (≈ 1930 µM) in data set [2] (FaSSIF (pH 6.5), 4 hr); 150 µg/mL (≈ 396 µM) in data set [2] (FaSSIF (pH 6.5), 24 hr); 970 µg/mL (≈ 2560 µM) in data set [2] (FeSSIF (pH 5.0), 1 hr); 150 µg/mL (≈ 396 µM) in data set [2] (FeSSIF (pH 5.0), 4 hr); 170 µg/mL (≈ 449 µM) in data set [2] (FeSSIF (pH 5.0), 24 hr). The Solubility in data set [2] (H2O (pH 6.5), 1 hr) turned out to be 440 µg/mL (≈ 1160 µM); in data set [2] (H2O (pH 6.5), 4 hr), 100 µg/mL (≈ 264 µM); in data set [2] (H2O (pH 6.5), 24 hr), 100 µg/mL (≈ 264 µM); in data set [2] (SGF (pH 1.8), 1 hr), 700 µg/mL (≈ 1850 µM); in data set [2] (SGF (pH 1.8), 4 hr), 110 µg/mL (≈ 291 µM); in data set [2] (SGF (pH 1.8), 24 hr), 100 µg/mL (≈ 264 µM). In data set [2], the “Form change after kinetic solubility test” value is recorded as “converted to Form A”. Moreover, the “Final Form” value in data set [2] (residual solid by XRPD, H2O (pH 6.5), 1 hr) is “A + C”. The “Weight gain by DVS” value in data set [3] is around 5.7 weight percent. In data set [3], the “Form change after DVS test” value was “no form change”. The “Form change on storage (XRPD)” value in data set [4] is given as “no observable form change”. In data set [4], the “HPLC purity change on storage” value is “no noticeable HPLC purity change”. The “Thermodynamic stability relationship / conversion in slurry” value in data set [1] is listed as “converted to Form B”. For the same compound, in data set [6], the “Form change after heating to 100° C. and cooling to RT” value was “no form change”.

With `CN1C(=O)[C@@H](NC(=O)c2nnc(Cc3ccccc3)[nH]2)COc2cccnc21` [Form D, (S)-5-benzyl-N-(5-methyl-4-oxo-2,3,4,5-tetrahydropyrido [3,2-b][1,4]oxazepin-3-yl)-4H-1,2,4-triazole-3-carboxamide], the “Form change after heating to 100° C. and cooling to RT” value in data set [6] is listed as “converted to Form C”.

Regarding `CN1C(=O)[C@@H](NC(=O)c2nnc(Cc3ccccc3)[nH]2)COc2cccnc21` [Form E, (S)-5-benzyl-N-(5-methyl-4-oxo-2,3,4,5-tetrahydropyrido [3,2-b][1,4]oxazepin-3-yl)-4H-1,2,4-triazole-3-carboxamide], in data set [7], the “Form change on exposure to ambient condition” value was “converted to Form C”.
